{
  "source": "patent US20260283924A1",
  "about": "“TOPICAL COMPOSITIONS FOR PROMOTING HAIR GROWTH” (ESTETRA SRL, priority 2023, published 2026)",
  "key": {"[1]": {"test_system": "Female wild-type (C57BL/6J) mice", "assay": "In vivo LPS-induced delayed wound healing model: uterine weight and morphology (systemic effect), Example 4", "details": "topical over wounds, 60 μl total, day -1 to day 4; uteri at day 5"}, "[2]": {"assay": "Antioxidant activity measured with Skin-Biosense sensor", "details": "H2O2 5 mM", "description": "The antioxidant activity of E4 was evaluated using the Skin-Biosense® sensor, a technology developed by Qima Life Sciences (Gencay, France). This electrochemical sensor measures the electron transfer between two conductive elements: the sensor and a solution of H2O2. The H2O2 solution is used as a marker for the determination of the detoxification power: as H2O2 is one of the most oxidizing non-radical species, any molecule capable of decreasing its concentration can be considered as an antioxidant. When a sample is in the presence of H2O2, all its antioxidative species spontaneously react with it and decrease its quantity. As the area of the peak measured by the sensor is directly proportional to H2O2 concentration, the detoxifying activity of a compound is evaluated by its modulation of the peak area.\nH2O2 5 mM in electrolytic ethanol solution was mixed with E4 in electrolytic ethanol solutions at several concentrations (0.16-0.5-1.6-5-16-50 mM), and the H2O2 oxidation peaks area were measured. The power of the antioxidant activity was calculated by comparing the peak area of the H202 solution with the peak area of the H2O2 solution mixed with an E4 solution."}, "[3]": {"test_system": "human anagen VI scalp HFs", "assay": "LDH release into the medium (cytotoxicity), healthy donor hair follicle organ culture", "assay_type": "cell-based", "details": "all tested concentrations (300 nM, 3 μM, 30 μM)", "description": "12-44 full-length frontotemporal hair follicles (HF) were obtained from four healthy human female donors >50 years old. […] Donor 2:29; Donor 3:44; Donor 4:32). After microdissection from skin as described in the art (Edelkamp et al., Methods Mol Biol, 2020, 2154:105-119; and Langan et al., Exp Dermatol, 2015 December; 24(12):903-1), HFs were placed in adequate culture medium and allowed a 24 h rest period to allow them to recover from the trauma of microdissection. Test substance (either vehicle (0.3% EtOH) or E4 at concentrations of 30 μM, 3 μM or 300 nM) was added to the medium at the end of the 24 h. Total culturing time was 5-9 days depending on the stage of the HFs in the vehicle group. The experimental design for a 6-days HF organ culture experiment is depicted in FIG. 9.\nLDH is released from the cytoplasm of damaged cells into the culture medium. Therefore, the cytotoxicity of agents can be estimated based on the activity of LDH present in the culture medium using a colorimetric assay (Cytotoxicity Detection Kit [LDH], Roche) as described (Gherardini et al Int J Cosmet Sci, 2019 April; 41(2):164-182). The measurements were performed on supernatants collected on days respective to each culture and normalized to blank.\nFor the maximum release, HFs were treated with 1% Triton X 100 in vehicle medium at 37° C. for 30 minutes in order to induce maximum LDH release into the medium."}, "[4]": {"test_system": "occipital hair follicles (healthy donor)", "assay": "Healthy donor hair follicle organ culture (ex vivo model), Example 8", "assay_type": "cell-based, human", "details": "for K15 expression in the suprabulbar outer root sheath / number of cells (K15) in the suprabulbar outer root sheath: 300 nM; for density of cells in the dermal cup of anagen HFs / density of cells in the dermal papilla / density of cells in the dermal papilla stalk / hair matrix keratinocyte proliferation / total number of cells in the dermal cup of anagen HFs / total number of cells in the dermal papilla / total number of cells in the dermal papilla stalk: 3 μM", "description": "In brief, 24 full-length occipital hair follicles (HF) were obtained from one healthy donor. […] Test substance (either vehicle (0.03% EtOH), E2 at concentration of 300 nM or E4 at concentrations of 3 μM or 300 nM) was added to the medium at the end of the 24 h. Total culturing time was 5 days depending on the stage of the HFs in the vehicle group. The experimental design is depicted in FIG. 23."}, "[5]": {"details": "300 nM and 3 μM, listed as Estetrol"}},
  "data": [
    {"smiles": "C[C@]12CC[C@@H]3c4ccc(O)cc4CC[C@H]3[C@@H]1[C@@H](O)[C@@H](O)[C@@H]2O", "note": "[Formulation E4, 1,3,5 (10)-estratrien-3,15alpha,16alpha,17beta-tetrol]", "values": [
      {"measurement": "uterine weight and morphology", "setting": "[1]", "value": "affects uterine weight in a dose-dependent manner"},
      {"measurement": "antioxidant activity (in words)", "setting": "[2]; E4 0.16-50 mM", "value": "potent antioxidant activity"},
      {"measurement": "antioxidant activity", "setting": "[2]; highest E4 concentration, 50000 µM", "value": 100, "unit": "%"},
      {"measurement": "antioxidant activity, mean power", "setting": "[2]; molar ratio E4/H2O2 of 1", "value": 77.5, "unit": "%"},
      {"measurement": "HF cytotoxicity (LDH release into the medium)", "setting": "[3]", "value": "did not induce HF cytotoxicity"},
      {"measurement": "HF cytotoxicity (LDH release into the medium)", "setting": "[3]; listed as Estetrol", "value": "does not induce LDH release into the medium"},
      {"measurement": "K15 expression in the suprabulbar outer root sheath", "setting": "[4]", "value": "tendentially increased"},
      {"measurement": "number of cells (K15) in the suprabulbar outer root sheath", "setting": "[4]", "value": "tendentially increased"},
      {"measurement": "area of the dermal papilla", "setting": "[4]; 300 nM and 3 μM", "value": "increased"},
      {"measurement": "hair shaft production (reduction vs vehicle)", "setting": "[4]; 300 nM and 3 μM", "value": "tendentially"},
      {"measurement": "microscopic hair cycle: anagen", "setting": "[4]; 300 nM and 3 μM", "value": "maintained HFs in anagen"},
      {"measurement": "number of CD34+ cells in the suprabulbar outer root sheath", "setting": "[4]; 300 nM and 3 μM", "value": "decreased"},
      {"measurement": "area of the dermal papilla", "setting": "[4]; [5]", "value": "increases the area"},
      {"measurement": "microscopic hair cycle: anagen", "setting": "[4]; [5]", "value": "maintain hair follicles in anagen"},
      {"measurement": "number of CD34+ cells in the suprabulbar outer root sheath", "setting": "[4]; [5]", "value": "decreases the number of CD34+ cells"},
      {"measurement": "K15 expression in the suprabulbar outer root sheath", "setting": "[4]; listed as estetrol", "value": "tendentially increase K15 expression"},
      {"measurement": "number of cells (K15) in the suprabulbar outer root sheath", "setting": "[4]; listed as estetrol", "value": "tendentially increase"},
      {"measurement": "density of cells in the dermal cup of anagen HFs", "setting": "[4]", "value": "significantly decreased"},
      {"measurement": "density of cells in the dermal papilla", "setting": "[4]", "value": "tendentially decreased"},
      {"measurement": "density of cells in the dermal papilla stalk", "setting": "[4]", "value": "decreased"},
      {"measurement": "hair matrix keratinocyte proliferation", "setting": "[4]", "value": "tendentially increased"},
      {"measurement": "total number of cells in the dermal cup of anagen HFs", "setting": "[4]", "value": "significantly decreased"},
      {"measurement": "total number of cells in the dermal papilla", "setting": "[4]", "value": "tendentially decreased"},
      {"measurement": "total number of cells in the dermal papilla stalk", "setting": "[4]", "value": "decreased"},
      {"measurement": "microscopic hair cycle: anagen maintenance", "setting": "[4]; 3 μM compared with 300 nM", "value": "even more prominently"},
      {"measurement": "density of cells in the dermal cup of anagen HFs", "setting": "[4]; listed as Estetrol", "value": "significantly decreases"},
      {"measurement": "density of cells in the dermal papilla", "setting": "[4]; listed as Estetrol", "value": "tendentially decreases"},
      {"measurement": "density of cells in the dermal papilla stalk", "setting": "[4]; listed as Estetrol", "value": "decreases the density of cells in the dermal papilla stalk"},
      {"measurement": "hair matrix keratinocyte proliferation", "setting": "[4]; listed as Estetrol", "value": "increased"},
      {"measurement": "total number of cells in the dermal cup of anagen HFs", "setting": "[4]; listed as Estetrol", "value": "significantly decreases"},
      {"measurement": "total number of cells in the dermal papilla", "setting": "[4]; listed as Estetrol", "value": "tendentially decreases"},
      {"measurement": "total number of cells in the dermal papilla stalk", "setting": "[4]; listed as Estetrol", "value": "tendentially"}
    ]}
  ]
}
